Test results published in ChEMBL document CHEMBL3102850, “Microwave assisted synthesis of naphthopyrans catalysed by silica supported fluoroboric acid as a new class of non purine xanthine oxidase inhibitors” (Bioorg Med Chem Lett, 2014).

What was measured:
[1] = target: T1, Xanthine dehydrogenase/oxidase (Bos taurus, UniProt P80457); test: Inhibition of bovine milk xanthine oxidase using xanthine as substrate assessed as decrease in uric acid formation at 50 uM preincubated for 5 mins; conditions: cattle
T1 sequence (P80457 whole entry): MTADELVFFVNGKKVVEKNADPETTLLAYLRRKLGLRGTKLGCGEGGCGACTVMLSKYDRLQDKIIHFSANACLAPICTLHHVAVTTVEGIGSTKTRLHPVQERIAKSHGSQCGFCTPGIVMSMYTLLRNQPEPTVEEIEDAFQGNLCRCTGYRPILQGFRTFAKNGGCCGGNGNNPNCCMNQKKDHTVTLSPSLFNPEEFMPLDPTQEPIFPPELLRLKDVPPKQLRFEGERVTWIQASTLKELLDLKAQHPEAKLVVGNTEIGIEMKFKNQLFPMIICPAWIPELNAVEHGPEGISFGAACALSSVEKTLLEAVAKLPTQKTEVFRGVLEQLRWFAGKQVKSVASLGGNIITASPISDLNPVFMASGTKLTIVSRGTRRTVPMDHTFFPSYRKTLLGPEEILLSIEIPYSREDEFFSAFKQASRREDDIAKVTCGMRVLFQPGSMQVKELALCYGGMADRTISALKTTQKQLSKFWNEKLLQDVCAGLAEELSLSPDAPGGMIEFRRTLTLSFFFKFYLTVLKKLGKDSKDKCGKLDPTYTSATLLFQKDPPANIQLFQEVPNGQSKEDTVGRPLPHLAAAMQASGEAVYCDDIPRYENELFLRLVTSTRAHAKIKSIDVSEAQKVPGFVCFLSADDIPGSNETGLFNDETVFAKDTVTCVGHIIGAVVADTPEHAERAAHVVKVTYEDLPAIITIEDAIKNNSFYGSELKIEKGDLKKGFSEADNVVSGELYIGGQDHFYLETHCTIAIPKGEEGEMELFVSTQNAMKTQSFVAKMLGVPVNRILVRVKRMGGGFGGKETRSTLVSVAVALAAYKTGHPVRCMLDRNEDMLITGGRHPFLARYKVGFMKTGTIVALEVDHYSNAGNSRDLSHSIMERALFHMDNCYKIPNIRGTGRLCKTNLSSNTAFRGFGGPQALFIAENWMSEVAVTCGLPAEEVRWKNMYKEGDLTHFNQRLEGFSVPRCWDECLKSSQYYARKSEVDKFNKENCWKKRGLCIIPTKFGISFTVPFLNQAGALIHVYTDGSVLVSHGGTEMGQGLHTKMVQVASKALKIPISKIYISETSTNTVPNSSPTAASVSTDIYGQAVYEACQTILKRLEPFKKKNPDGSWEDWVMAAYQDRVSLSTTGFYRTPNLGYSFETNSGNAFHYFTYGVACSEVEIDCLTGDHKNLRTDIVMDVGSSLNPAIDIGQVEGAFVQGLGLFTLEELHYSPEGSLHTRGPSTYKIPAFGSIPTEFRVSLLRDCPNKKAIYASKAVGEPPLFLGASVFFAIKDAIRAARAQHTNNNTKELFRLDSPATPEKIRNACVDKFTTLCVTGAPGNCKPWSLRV

[2] = target: T1, Xanthine dehydrogenase/oxidase; test: Inhibition of bovine milk xanthine oxidase using xanthine as substrate assessed as decrease in uric acid formation preincubated for 5 mins

| Compound | inhibition at 50 µM [1] | IC50 [2] |
| --- | --- | --- |
| COC(=O)C1=C(C)Oc2ccc3ccccc3c2C1c1sccc1C (stereo unspecified) | 93.3% | 7.31 µM |
| COC(=O)C1=C(C)Oc2ccc3ccccc3c2C1c1ccco1 (stereo unspecified) | 92.5% | 10 µM |
| CCOC(=O)C1=C(C)Oc2ccc3ccccc3c2C1c1ccccc1 (stereo unspecified) | 65.2% | 44.4 µM |
| COC(=O)C1=C(C)Oc2ccc3ccccc3c2C1 | 32% | – |
| CCCCCC1C(C(=O)OC)=C(C)Oc2ccc3ccccc3c21 (stereo unspecified) | 58.9% | – |
| COC(=O)C1=C(C)Oc2ccc3ccccc3c2C1c1ccc(O)cc1 (stereo unspecified) | 72.4% | 24 µM |
| CCOC(=O)C1=C(C)Oc2ccc3ccccc3c2C1c1cccs1 (stereo unspecified) | 89% | 11.4 µM |
| COC(=O)C1=C(C)Oc2ccc3ccccc3c2C1c1ccc(OC)cc1 (stereo unspecified) | 68.7% | 36.5 µM |
| CCOC(=O)C1=C(C)Oc2ccc3ccccc3c2C1/C=C/c1ccccc1 (stereo unspecified) | 11.3% | – |
| COC(=O)C1=C(C)Oc2ccc3ccccc3c2C1c1ccc(Cl)cc1 (stereo unspecified) | 23.9% | – |
| COC(=O)C1=C(C)Oc2ccc3ccccc3c2C1c1ccccc1OC (stereo unspecified) | 58.8% | – |
| COC(=O)C1=C(C)Oc2ccc3ccccc3c2C1c1cccs1 (stereo unspecified) | 96.6% | 4 µM |
| CCOC(=O)C1=C(C)Oc2ccc3ccccc3c2C1c1ccc([N+](=O)[O-])cc1 (stereo unspecified) | 21.4% | – |
| CCOC(=O)C1=C(C)Oc2ccc3ccccc3c2C1c1cccc(Oc2ccccc2)c1 (stereo unspecified) | 50.5% | – |
| COC(=O)C1=C(C)Oc2ccc3ccccc3c2C1c1cccc(Oc2ccccc2)c1 (stereo unspecified) | 59.6% | – |
| CCOC(=O)C1=C(C)Oc2ccc3ccccc3c2C1c1ccco1 (stereo unspecified) | 88.6% | 13.2 µM |
| COC(=O)C1=C(C)Oc2ccc3ccccc3c2C1c1ccc[nH]1 (stereo unspecified) | 94.5% | 6.23 µM |
| COC(=O)C1=C(C)Oc2ccc3ccccc3c2C1c1ccc([N+](=O)[O-])cc1 (stereo unspecified) | 25% | – |

The next lines start with the values.

| inhibition at 50 µM [1] | IC50 [2] | Compound |
| --- | --- | --- |
| 20.9% | – | CCOC(=O)C1=C(C)Oc2ccc3ccccc3c2C1c1ccc(Cl)cc1 (stereo unspecified) |
| 62.3% | – | CCOC(=O)C1=C(C)Oc2ccc3ccccc3c2C1c1ccc(OC)c(OC)c1 (stereo unspecified) |
| 64.7% | – | CCOC(=O)C1=C(C)Oc2ccc3ccccc3c2C1c1ccc(OC)c(O)c1 (stereo unspecified) |
| 50% | – | COC(=O)C1=C(C)Oc2ccc3ccccc3c2C1c1cc(OC)c(OC)c(OC)c1 (stereo unspecified) |
| 78.2% | 17 µM | COC(=O)C1=C(C)Oc2ccc3ccccc3c2C1c1ccc(OC)c(OC)c1 (stereo unspecified) |
| 67.5% | – | COC(=O)C1=C(C)Oc2ccc3ccccc3c2C1c1ccc(O)c(OC)c1 (stereo unspecified) |
| 56.5% | – | CCOC(=O)C1=C(C)Oc2ccc3ccccc3c2C1c1ccc(OC)cc1 (stereo unspecified) |
| 69.3% | – | COC(=O)C1=C(C)Oc2ccc3ccccc3c2C1c1ccc(OC)c(O)c1 (stereo unspecified) |
